Reference: US20250221410A1, “SUBSTITUTED 2-C-AZINES AND SALTS THEREOF, AND USE THEREOF AS HERBICIDAL ACTIVE SUBSTANCES” (BAYER AKTIENGESELLSCHAFT, priority 2022, published 2025)

Assays:
Type in all cases: in vivo
[1] = system: AMARE: Amaranthus retroflexus; test: Post-emergence herbicidal efficacy at 80 g/ha, AMARE; conditions: visual rating about 3 weeks after treatment vs untreated controls
Procedure: (§1) Seeds of monocotyledonous and dicotyledonous weeds and crop plants were placed in sandy loam in plastic or organic planting pots, covered with soil and cultivated in a greenhouse under controlled growth conditions. 2 to 3 weeks after sowing, the test plants were treated at the one-leaf stage. The compounds of the invention, formulated in the form of wettable powders (WP) or as emulsion concentrates (EC), were then sprayed onto the green parts of the plants as aqueous suspension or emulsion with addition of 0.5% additive at a water application rate of 600 l/ha (converted). After the test plants had been kept in the greenhouse under optimum growth conditions for about 3 weeks, the activity of the preparations was rated visually in comparison to untreated controls. For example, 100% activity=the plants have died, 0% activity=like control plants. Tables B1 to B10 below show the effects of selected compounds of the general formula (I) according to Table 1 on various harmful plants and an application rate corresponding to 80 g/ha, which were obtained by the experimental procedure mentioned above.

[2] = system: AMARE: Amaranthus retroflexus; test: Pre-emergence herbicide efficacy at 80 g/ha, AMARE; conditions: scored visually after about 3 weeks
Source text: (§2) Seeds of monocotyledonous and dicotyledonous weed plants and crop plants were placed in plastic or organic planting pots and covered with soil. The compounds of the invention, formulated in the form of wettable powders (WP) or as emulsion concentrates (EC), were then applied to the surface of the covering soil as aqueous suspension or emulsion with addition of 0.5% additive at a water application rate equivalent to 600 l/ha. After the treatment, the pots were placed in a greenhouse and kept under good growth conditions for the test plants. After about 3 weeks, the efficacy of the preparations was scored visually in comparison with untreated controls as percentages. For example, 100% activity=the plants have died, 0% activity=like control plants. Tables D1 to D12 below show the effects of selected compounds of the general formula (I) according to Table 1 on various harmful plants and an application rate corresponding to 80 g/ha, which were obtained by the experimental procedure mentioned above.

VERPE: Veronica persica [3] = test: Post-emergence herbicidal efficacy at 80 g/ha, VERPE; conditions: visual rating about 3 weeks after treatment vs untreated controls
Procedure: as §1

[4] = system: ECHCG: Echinochloa crus-galli; test: Pre-emergence herbicide efficacy at 1280 g/ha, ECHCG; conditions: visual scoring after about 3 weeks vs untreated controls
In short: (§3)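 Efficacy is a visual percentage rating against untreated controls, taken about 3 weeks after soil-surface application to freshly sown, soil-covered seeds in sandy loam.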

SETVI: Setaria viridis [5] = test: Post-emergence herbicidal efficacy at 1280 g/ha, SETVI; conditions: visual rating about 3 weeks after treatment vs untreated controls
In short: (§4)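 Read-out is visual percent activity relative to untreated controls (100% = plants died, 0% = no effect), scored about 3 weeks after treatment. Application was post-emergence at the one-leaf stage in the greenhouse, as WP or EC in water with 0.5% additive at 600 L/ha.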

STEME: Stellaria media [6] = test: Pre-emergence herbicide efficacy at 1280 g/ha, STEME; conditions: visual scoring vs untreated controls
In short: as §3

[7] = system: AMARE: Amaranthus retroflexus; test: Pre-emergence herbicide efficacy at 1280 g/ha, AMARE; conditions: visual scoring after about 3 weeks vs untreated controls
In short: as §3

[8] = system: MATIN: Matricaria inodora; test: Pre-emergence herbicide efficacy at 1280 g/ha, MATIN; conditions: visual scoring after about 3 weeks vs untreated controls
Source text: Seeds of mono- and dicotyledonous weed plants were placed in plastic pots in sandy loam soil (doubly sown with one species each of mono- or dicotyledonous weed plants per pot) and covered with soil. The compounds of the invention, formulated in the form of wettable powders (WP) or as emulsion concentrates (EC), were then applied to the surface of the covering soil as aqueous suspension or emulsion with addition of 0.5% additive at a water application rate of 600 litres per hectare (converted). After the treatment, the pots were placed in a greenhouse and kept under good growth conditions for the test plants. After about 3 weeks, the efficacy of the preparations was scored visually in comparison with untreated controls as percentages. For example, 100% activity=the plants have died, 0% activity=like control plants. Tables C1 to C12 below show the effects of selected compounds of the general formula (I) according to Table 1 on various harmful plants and at an application rate corresponding to 1280 g/ha, which were obtained by the trial procedure specified above.

[9] = system: ABUTH: Abutilon theophrasti; test: Post-emergence herbicidal efficacy at 1280 g/ha, ABUTH; conditions: rated visually after about 3 weeks vs untreated controls, 100% = plants have died, 0% = like control plants
In short: as §4

VERPE: Veronica persica [10] = test: Pre-emergence herbicide efficacy at 1280 g/ha, VERPE; conditions: visual scoring vs untreated controls
In short: as §3

KCHSC: Kochia scoparia [11] = test: Post-emergence herbicidal efficacy at 1280 g/ha, KCHSC; conditions: visual rating about 3 weeks after treatment vs untreated controls
In short: as §4

POAAN: Poa annua [12] = test: Post-emergence herbicidal efficacy at 1280 g/ha, POAAN; conditions: visual rating about 3 weeks after treatment vs untreated controls
In short: as §4

VERPE: Veronica persica [13] = test: Post-emergence herbicidal efficacy at 1280 g/ha, VERPE; conditions: visual rating about 3 weeks after treatment vs untreated controls
In short: as §4

[14] = system: DIGSA: Digitaria sanguinalis; test: Pre-emergence herbicide efficacy at 1280 g/ha, DIGSA; conditions: visual scoring after about 3 weeks vs untreated controls
In short: as §3

KCHSC: Kochia scoparia [15] = test: Pre-emergence herbicide efficacy at 1280 g/ha, KCHSC; conditions: visual scoring after about 3 weeks vs untreated controls
In short: as §3

POAAN: Poa annua [16] = test: Pre-emergence herbicide efficacy at 1280 g/ha, POAAN; conditions: visual scoring after about 3 weeks vs untreated controls
In short: as §3

STEME: Stellaria media [17] = test: Post-emergence herbicidal efficacy at 1280 g/ha, STEME; conditions: visual rating about 3 weeks after treatment vs untreated controls
In short: as §4

[18] = system: ABUTH: Abutilon theophrasti; test: Pre-emergence herbicide efficacy at 1280 g/ha, ABUTH; conditions: visual scoring after about 3 weeks vs untreated controls
In short: as §3

[19] = system: DIGSA: Digitaria sanguinalis; test: Post-emergence herbicidal efficacy at 1280 g/ha, DIGSA; conditions: rated visually after about 3 weeks vs untreated controls, 100% = plants have died, 0% = like control plants
In short: as §4

SETVI: Setaria viridis [20] = test: Pre-emergence herbicide efficacy at 1280 g/ha, SETVI; conditions: visual scoring vs untreated controls
In short: as §3

[21] = system: AMARE: Amaranthus retroflexus; test: Post-emergence herbicidal efficacy at 1280 g/ha, AMARE; conditions: rated visually after about 3 weeks vs untreated controls, 100% = plants have died, 0% = like control plants
In short: as §4

POLCO = test: Pre-emergence herbicide efficacy at 80 g/ha, POLCO; conditions: Polygonum convolvulus, scored visually after about 3 weeks
Source text: as §2

[22] = system: DIGSA: Digitaria sanguinalis; test: Pre-emergence herbicide efficacy at 80 g/ha, DIGSA; conditions: scored visually after about 3 weeks
Source text: as §2

[23] = system: ECHCG: Echinochloa crus-galli; test: Post-emergence herbicidal efficacy at 1280 g/ha, ECHCG; conditions: rated visually after about 3 weeks vs untreated controls, 100% = plants have died, 0% = like control plants
In short: as §4

## O=S(=O)(CCC(F)(F)F)Oc1c(F)cccc1Cc1ncc(Br)cn1 [Example 1-187]
[1]
  Post-emergence efficacy against AMARE: 90%
[2]
  Pre-emergence efficacy against AMARE in %: 100%
VERPE: Veronica persica [3]
  Post-emergence efficacy against VERPE: 90%

## O=S(=O)(CCCC(F)(F)F)Oc1c(F)cccc1Cc1ncc(Cl)cn1 [Example 1-14]
[1]
  Post-emergence efficacy against AMARE: 95%
[2]
  Pre-emergence efficacy against AMARE in %: 90%
VERPE: Veronica persica [3]
  Post-emergence efficacy against VERPE: 95%

## Fc1ccc(Cc2ccccc2Oc2ncc(Cl)cn2)nc1 [Example 1-92]
[4]
  Pre-emergence efficacy against ECHCG: 100%
SETVI: Setaria viridis [5]
  Post-emergence efficacy against SETVI: 100%
STEME: Stellaria media [6]
  Pre-emergence efficacy against STEME in %: 100%
[7]
  Pre-emergence efficacy against AMARE: 100%
[8]
  Pre-emergence efficacy against MATIN: 100%
[9]
  Post-emergence efficacy at 1280 g/ha against ABUTH in %: 90%
VERPE: Veronica persica [10]
  Pre-emergence efficacy against VERPE in %: 100%
KCHSC: Kochia scoparia [11]
  Post-emergence efficacy against KCHSC: 100%
POAAN: Poa annua [12]
  Post-emergence efficacy against POAAN: 100%
VERPE: Veronica persica [13]
  Post-emergence efficacy against VERPE: 100%
[14]
  Pre-emergence efficacy against DIGSA: 100%
KCHSC: Kochia scoparia [15]
  Pre-emergence efficacy against KCHSC: 100%
POAAN: Poa annua [16]
  Pre-emergence efficacy against POAAN: 100%
STEME: Stellaria media [17]
  Post-emergence efficacy against STEME: 100%
[18]
  Pre-emergence efficacy against ABUTH: 100%
[19]
  Post-emergence efficacy at 1280 g/ha against DIGSA in %: 90%
SETVI: Setaria viridis [20]
  Pre-emergence efficacy against SETVI in %: 100%
[21]
  Post-emergence efficacy at 1280 g/ha against AMARE in %: 100%

## Clc1ccc(Cc2ccccc2Oc2ncc(Cl)cn2)nc1 [Example 1-91]
[4]
  Pre-emergence efficacy against ECHCG: 90%
SETVI: Setaria viridis [5]
  Post-emergence efficacy against SETVI: 90%
STEME: Stellaria media [6]
  Pre-emergence efficacy against STEME in %: 100%
[7]
  Pre-emergence efficacy against AMARE: 100%
[8]
  Pre-emergence efficacy against MATIN: 100%
[9]
  Post-emergence efficacy at 1280 g/ha against ABUTH in %: 100%
VERPE: Veronica persica [10]
  Pre-emergence efficacy against VERPE in %: 100%
KCHSC: Kochia scoparia [11]
  Post-emergence efficacy against KCHSC: 100%
POAAN: Poa annua [12]
  Post-emergence efficacy against POAAN: 100%
VERPE: Veronica persica [13]
  Post-emergence efficacy against VERPE: 100%
[14]
  Pre-emergence efficacy against DIGSA: 100%
KCHSC: Kochia scoparia [15]
  Pre-emergence efficacy against KCHSC: 100%
POAAN: Poa annua [16]
  Pre-emergence efficacy against POAAN: 100%
STEME: Stellaria media [17]
  Post-emergence efficacy against STEME: 100%
[18]
  Pre-emergence efficacy against ABUTH: 100%
[19]
  Post-emergence efficacy at 1280 g/ha against DIGSA in %: 90%
SETVI: Setaria viridis [20]
  Pre-emergence efficacy against SETVI in %: 100%
[21]
  Post-emergence efficacy at 1280 g/ha against AMARE in %: 100%

## Fc1cnc(Cc2cccc(F)c2Oc2ncc(Cl)cn2)nc1 [Example 1-154]
[1]
  Post-emergence efficacy against AMARE: 90%
POLCO
  Pre-emergence efficacy against POLCO in %: 80%
[2]
  Pre-emergence efficacy against AMARE in %: 100%

## Fc1cnc(Cc2cccc(Cl)c2Oc2ncc(Cl)cn2)nc1 [Example 1-157]
[1]
  Post-emergence efficacy against AMARE: 80%
[2]
  Pre-emergence efficacy against AMARE in %: 100%
[22]
  Pre-emergence efficacy against DIGSA in %: 80%

## Cc1cccc(Cc2ncc(Cl)cn2)c1Oc1ncc(F)cn1 [Example 1-165]
POLCO
  Pre-emergence efficacy against POLCO in %: 80%
[22]
  Pre-emergence efficacy against DIGSA in %: 80%

## Cc1cccc(Cc2ncc(Cl)cn2)c1OS(=O)(=O)CCC(F)(F)F [Example 1-189]
[2]
  Pre-emergence efficacy against AMARE in %: 80%
VERPE: Veronica persica [3]
  Post-emergence efficacy against VERPE: 90%

## Cc1cccc(Cc2ncc(F)cn2)c1Oc1ncc(F)cn1 [Example 1-162]
POLCO
  Pre-emergence efficacy against POLCO in %: 80%
[2]
  Pre-emergence efficacy against AMARE in %: 90%

## O=S(=O)(CCCC(F)(F)F)Oc1c(F)cccc1Cc1ncc(Br)cn1 [Example 1-186]
[1]
  Post-emergence efficacy against AMARE: 90%
VERPE: Veronica persica [3]
  Post-emergence efficacy against VERPE: 90%

## O=S(=O)(CCCCl)Oc1c(F)cccc1Cc1ncc(Cl)cn1 [Example 1-193]
[1]
  Post-emergence efficacy against AMARE: 90%
VERPE: Veronica persica [3]
  Post-emergence efficacy against VERPE: 90%

## O=S(=O)(CCCCl)Oc1c(F)cccc1Cc1ncc(Br)cn1 [Example 1-192]
VERPE: Veronica persica [3]
  Post-emergence efficacy against VERPE: 80%

## Fc1ccc(Sc2ccccc2Cc2ncc(F)cn2)cc1 [Example 1-104]
[4]
  Pre-emergence efficacy against ECHCG: 100%
SETVI: Setaria viridis [5]
  Post-emergence efficacy against SETVI: 90%
STEME: Stellaria media [6]
  Pre-emergence efficacy against STEME in %: 100%
[7]
  Pre-emergence efficacy against AMARE: 100%
[23]
  Post-emergence efficacy at 1280 g/ha against ECHCG in %: 100%
[8]
  Pre-emergence efficacy against MATIN: 100%
[9]
  Post-emergence efficacy at 1280 g/ha against ABUTH in %: 100%
VERPE: Veronica persica [10]
  Pre-emergence efficacy against VERPE in %: 100%
KCHSC: Kochia scoparia [11]
  Post-emergence efficacy against KCHSC: 100%
POAAN: Poa annua [12]
  Post-emergence efficacy against POAAN: 100%
VERPE: Veronica persica [13]
  Post-emergence efficacy against VERPE: 100%
[14]
  Pre-emergence efficacy against DIGSA: 100%
POAAN: Poa annua [16]
  Pre-emergence efficacy against POAAN: 100%
STEME: Stellaria media [17]
  Post-emergence efficacy against STEME: 100%
[18]
  Pre-emergence efficacy against ABUTH: 100%
[19]
  Post-emergence efficacy at 1280 g/ha against DIGSA in %: 100%
SETVI: Setaria viridis [20]
  Pre-emergence efficacy against SETVI in %: 100%
[21]
  Post-emergence efficacy at 1280 g/ha against AMARE in %: 100%
